# Tests used:
# Conditions in all cases: isolated protein; call rule not given here
# [1] = target: T1, Albumin (Homo sapiens, UniProt P02768); experiment: Binding affinity to 130 uM human serum albumin assessed as fluorescence distribution at 2.5 uM; type: ADME
# [2] = target: T1, Albumin; experiment: Binding affinity to human serum albumin intensity at 5 uM by fluorescence based drug displacement assay in presence of dansyl sarcosine
# [3] = target: T1, Albumin; experiment: Binding affinity to human serum albumin by tryptophan fluorescence quenching method; type: ADME
# [4] = target: T1, Albumin; experiment: Binding affinity to human serum albumin by Benesi-Hildebrand method; type: ADME
# [5] = target: T1, Albumin; experiment: Binding affinity to 45 uM human serum albumin assessed as fluorescence distribution at 2.5 uM; type: ADME
# [6] = target: T1, Albumin; experiment: Binding affinity to human serum albumin intensity at 5 uM by fluorescence based drug displacement assay in presence of dansyl amide
# [7] = target: T1, Albumin; experiment: Binding affinity to 15 uM human serum albumin assessed as fluorescence distribution at 2.5 uM; type: ADME
# T1 sequence (P02768 whole entry): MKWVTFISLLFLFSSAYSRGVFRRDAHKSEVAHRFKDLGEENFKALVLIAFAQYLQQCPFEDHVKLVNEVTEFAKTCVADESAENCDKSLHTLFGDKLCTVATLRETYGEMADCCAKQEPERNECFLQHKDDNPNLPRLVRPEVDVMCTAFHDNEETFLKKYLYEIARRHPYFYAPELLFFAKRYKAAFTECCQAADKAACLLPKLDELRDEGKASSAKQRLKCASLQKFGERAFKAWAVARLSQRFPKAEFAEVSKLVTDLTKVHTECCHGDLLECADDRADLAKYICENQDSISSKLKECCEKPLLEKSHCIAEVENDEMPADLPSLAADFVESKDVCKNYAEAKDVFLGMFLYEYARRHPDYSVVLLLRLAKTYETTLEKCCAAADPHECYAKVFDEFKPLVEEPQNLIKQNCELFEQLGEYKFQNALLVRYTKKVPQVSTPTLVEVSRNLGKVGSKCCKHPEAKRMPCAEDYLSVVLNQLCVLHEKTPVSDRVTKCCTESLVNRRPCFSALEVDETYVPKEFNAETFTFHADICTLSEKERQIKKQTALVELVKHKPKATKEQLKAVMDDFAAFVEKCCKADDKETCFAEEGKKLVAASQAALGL
Activity [1],Activity [2],Ka [3],Ka [4],Activity [5],Activity [6],Activity [7],SMILES
44.6%,Not Active,5 ×10⁴ /M,4.8 ×10⁴ /M,28.1%,Active,2.9%,CC1(C)CC(OC(=O)c2cc3cc4c5c(c3oc2=O)CCCN5CCC4)CC(C)(C)N1O
,,9 ×10⁴ /M,,,,,Cc1nc2ccccc2c(C(=O)OC2CC(C)(C)N(O)C(C)(C)C2)c1O
